Experimental data reported in article PMC8298633, “Cannabis constituents interact at the drug efflux pump BCRP to markedly increase plasma cannabidiolic acid concentrations” (Scientific Reports, 2021).

Assays:
P-glycoprotein = P-glycoprotein (Homo sapiens, UniProt P08183); experiment: Bidirectional transwell substrate assay, MDCK cells expressing P-glycoprotein; details: for P (A > B): apical to basolateral; for P (B > A): basolateral to apical; for P-glycoprotein substrate status: human P-glycoprotein MDCK cells vs wildtype
Sequence of P-glycoprotein (P08183 whole entry): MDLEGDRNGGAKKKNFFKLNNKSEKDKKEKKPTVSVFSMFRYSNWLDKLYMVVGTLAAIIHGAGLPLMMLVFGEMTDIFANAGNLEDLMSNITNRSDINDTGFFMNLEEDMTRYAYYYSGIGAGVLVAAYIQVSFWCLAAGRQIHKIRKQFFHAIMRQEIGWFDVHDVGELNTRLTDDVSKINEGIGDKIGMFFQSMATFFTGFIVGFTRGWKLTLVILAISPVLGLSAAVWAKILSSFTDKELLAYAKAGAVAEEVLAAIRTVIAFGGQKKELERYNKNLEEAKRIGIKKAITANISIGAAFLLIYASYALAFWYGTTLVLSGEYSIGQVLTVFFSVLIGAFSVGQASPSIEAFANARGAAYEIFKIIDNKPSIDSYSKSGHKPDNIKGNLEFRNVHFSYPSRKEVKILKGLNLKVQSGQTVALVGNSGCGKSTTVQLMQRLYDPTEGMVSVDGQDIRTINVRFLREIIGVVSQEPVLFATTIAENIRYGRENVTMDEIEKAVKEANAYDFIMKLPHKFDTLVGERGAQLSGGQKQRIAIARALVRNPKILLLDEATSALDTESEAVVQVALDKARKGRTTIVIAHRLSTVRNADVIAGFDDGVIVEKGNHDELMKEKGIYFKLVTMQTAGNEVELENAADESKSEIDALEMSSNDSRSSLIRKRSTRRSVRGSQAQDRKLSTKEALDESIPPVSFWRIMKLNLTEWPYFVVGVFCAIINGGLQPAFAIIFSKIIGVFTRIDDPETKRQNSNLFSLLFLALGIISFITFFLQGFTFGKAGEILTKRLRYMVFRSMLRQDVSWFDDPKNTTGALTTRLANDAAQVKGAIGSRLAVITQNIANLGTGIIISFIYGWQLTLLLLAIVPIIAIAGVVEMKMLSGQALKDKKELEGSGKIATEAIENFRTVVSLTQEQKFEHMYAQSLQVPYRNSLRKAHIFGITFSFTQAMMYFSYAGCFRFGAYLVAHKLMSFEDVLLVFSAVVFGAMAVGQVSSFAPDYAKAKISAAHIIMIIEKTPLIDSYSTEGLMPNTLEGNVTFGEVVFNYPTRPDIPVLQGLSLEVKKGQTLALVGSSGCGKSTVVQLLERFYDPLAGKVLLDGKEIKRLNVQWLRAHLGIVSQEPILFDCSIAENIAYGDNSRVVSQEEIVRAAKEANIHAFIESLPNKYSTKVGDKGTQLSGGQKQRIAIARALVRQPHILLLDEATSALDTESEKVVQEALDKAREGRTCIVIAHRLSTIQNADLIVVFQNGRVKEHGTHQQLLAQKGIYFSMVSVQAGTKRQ
Description: (§1) We first aimed to determine whether the cannabinoids found in the full-spectrum cannabis extract were substrates of P-glycoprotein and BCRP by using MDCK cells expressing human P-glycoprotein or BCRP in vitro. Transwell assays were conducted to assess bidirectional transport of the cannabinoids detected in plasma following administration of the full-spectrum cannabis extract (CBD, CBDA, CBDVA, CBGA, Δ^9-THC and Δ^9-THCA), including the respective neutral compounds (CBDV and CBG) across wildtype, BCRP and P-glycoprotein MDCK cell monolayers. […] BCRP and P-glycoprotein preferentially transport substrates in the B > A direction.
(§2) Media in the donor chamber was then replaced with that containing 10 µM of an individual cannabinoid in the presence of either vehicle or inhibitor and returned to 37 °C. Aliquots (25 or 50 µL) were removed from the accepter chamber at 60, 120, 180 and 240 min.
(§3) Cannabinoids were analyzed as described above.

BCRP [1] = molecular target: T1, BCRP (Homo sapiens, UniProt Q9UNQ0); experiment: Inhibition of BCRP-mediated transport of prazosin (transwell, BCRP MDCK cells); details: for P (A > B) of prazosin in the presence of inhibitor / P (B > A) of prazosin in the presence of inhibitor: 10 µM inhibitor, 1 µM prazosin
T1 sequence (Q9UNQ0 1-655): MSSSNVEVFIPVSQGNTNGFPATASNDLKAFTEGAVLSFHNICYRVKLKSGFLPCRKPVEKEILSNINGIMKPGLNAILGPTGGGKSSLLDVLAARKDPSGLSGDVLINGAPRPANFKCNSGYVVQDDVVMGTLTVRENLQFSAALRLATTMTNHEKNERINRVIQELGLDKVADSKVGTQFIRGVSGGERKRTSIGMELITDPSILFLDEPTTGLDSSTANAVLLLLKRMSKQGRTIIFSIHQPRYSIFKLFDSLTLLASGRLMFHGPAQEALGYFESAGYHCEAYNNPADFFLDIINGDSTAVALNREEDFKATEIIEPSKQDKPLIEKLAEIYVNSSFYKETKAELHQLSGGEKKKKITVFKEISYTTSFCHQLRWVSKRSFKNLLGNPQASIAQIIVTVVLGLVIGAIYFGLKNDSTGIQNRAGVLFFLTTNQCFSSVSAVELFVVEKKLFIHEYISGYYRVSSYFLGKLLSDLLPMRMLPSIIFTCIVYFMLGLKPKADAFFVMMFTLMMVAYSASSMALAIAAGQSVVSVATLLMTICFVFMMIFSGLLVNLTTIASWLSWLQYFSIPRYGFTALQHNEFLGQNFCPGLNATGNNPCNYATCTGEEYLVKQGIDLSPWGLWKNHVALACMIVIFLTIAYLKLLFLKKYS

[2] = Pharmacokinetic study: plasma cannabinoids after single oral gavage of full-spectrum cannabis extract or individual cannabinoid; details: mouse plasma; for tmax / AUC / t1/2 / Cmax / Total plasma exposure in full-spectrum extract relative to individual compound, fold lower: oral; for Total plasma exposure in full-spectrum extract relative to individual compound, fold lower: equivalent doses; for Detection in plasma following oral administration of the full-spectrum extract: single oral dose of extract
Description: Drugs were administered by oral gavage in a volume of 5 mL/kg. Wildtype male and female mice (postnatal day 21–28, P21-28) received a single oral gavage of either the full-spectrum cannabis extract or an individual cannabinoid. Cannabinoid doses within the full-spectrum extract or as an individual cannabinoid were as follows in mg/kg: CBDA and Δ^9-THCA, 50; CBD, 25; Δ^9-THC, 15; CBC, 9; CBDVA and CBGA, 7; CBN, 2.5; CBG, 1.5; CBDV and Δ^9-THCV, < 1 (Fig. 1a). At selected time points (15–240 min), mice were anesthetized with isoflurane and whole blood was collected by cardiac puncture. Plasma was isolated by centrifugation (9000 g for 10 min, 4 °C) and stored at − 80 °C until assayed.
Concentrations of cannabinoids in plasma samples were quantified as described previously, [24], [58]. […] The organic layer was isolated by centrifugation (4000 g for 10 min) and evaporated to dryness with N2. Samples were reconstituted in acetonitrile and 0.1% formic acid in water (1:3.3, v/v) for supported-liquid extraction (SLE) with methyl tert-butyl ether (MTBE) using Biotage Isolute SLE+ columns (Uppsala, SWE). […] Quantification of cannabinoids was achieved by comparing samples to standards prepared with known amounts of drug.
Plasma concentrations at each time point were averaged and pharmacokinetic parameters were calculated by noncompartmental analysis. Elimination rate constants were determined by linear regression of the terminal component of the concentration–time curve using GraphPad Prism 8.2 (La Jolla, USA). The log-linear trapezoidal method was used to calculated total drug exposure (area under concentration–time curve) using equations described previously.

BCRP [3] = molecular target: T1, BCRP; experiment: Bidirectional transwell substrate assay, MDCK cells expressing BCRP (with or without elacridar); details: for r (transport efflux ratio) / P (A > B) / P (B > A): BCRP MDCK cells; for P (A > B): apical to basolateral; for P (B > A): basolateral to apical; for BCRP substrate status: human BCRP MDCK cells vs wildtype, with elacridar control
Description: as §1, §2, §3

wildtype MDCK cells = experiment: Bidirectional transwell transport assay, wildtype MDCK cell monolayers; details: wildtype MDCK cells, 10 µM cannabinoid; for P (A > B): apical to basolateral; for P (B > A): basolateral to apical
Description: as §1, §2, §3

BCRP [4] = molecular target: T1, BCRP; experiment: Inhibition of BCRP-mediated transport of CBDA by cannabinoids (transwell, BCRP MDCK cells); details: BCRP MDCK cells; for P (A > B) of CBDA in the presence of inhibitor / P (B > A) of CBDA in the presence of inhibitor: cannabinoids tested at 10 µM
Description: Cannabinoids were tested at 10 µM. […] Data are expressed as means ± SEM, with n = 4 per time point. […] Schematic created using BioRender.com.
as §3

[5] = P-glycoprotein MDCK cells, 10 µM cannabinoid
[6] = administered as individual cannabinoid, doses mg/kg: CBD 25, CBDA 50, CBDVA 7, CBGA 7, THC 15, THCA 50
[7] = administered as individual cannabinoid, doses mg/kg: CBD 25, CBDA 50, CBDVA 7, THC 15, THCA 50
[8] = administered in full-spectrum extract, doses mg/kg: CBD 25, CBDA 50, CBDVA 7, CBGA 7, THC 15, THCA 50
[9] = 10 µM cannabinoid, substrate threshold 1.5

SMILES: CCCCCc1cc(O)c2c(c1)OC(C)(C)[C@@H]1CCC(C)=C[C@@H]21 [Δ^9-THC, Δ^9-tetrahydrocannabinol, reference compound]
- P (A > B) (P-glycoprotein; [5]): 9 ± 3 × 10^−5 cm/s
- P (B > A) (P-glycoprotein; [5]): 4 ± 1 × 10^−5 cm/s
- P-glycoprotein substrate status (P-glycoprotein): not P-glycoprotein substrates
- P (A > B) of prazosin in the presence of inhibitor (BCRP [1]): 18 ± 2 × 10^−2 cm/s
- P (B > A) of prazosin in the presence of inhibitor (BCRP [1]): 201 ± 8 × 10^−2 cm/s
- Effect on BCRP-mediated transport of prazosin (BCRP [1]; 10 µM, compared to vehicle): not prazosin transport
- tmax [2, 6]: 1.5 h
- AUC [2, 7]: 116 µg·min/mL
- t1/2 [2, 7]: 3.5 h
- Cmax ([2]; administered as individual cannabinoid, doses mg/kg: CBD 25, THC 15, THCA 50): 341 ± 40 ng/mL
- AUC [2, 8]: 62 µg·min/mL
- t1/2 [2, 8]: 5.5 h
- tmax [2, 8]: ≤ 1 h
- tmax ([2]; administered in full-spectrum extract, doses mg/kg: CBD 25, CBDA 50, CBDVA 7, CBGA 7, THC 15, THCA 50, listed as THC): 1 h
- Cmax ([2]; administered in full-spectrum extract, doses mg/kg: CBD 25, THC 15, THCA 50): 127 ± 15 ng/mL
- Total plasma exposure in full-spectrum extract relative to individual compound, fold lower [2]: 2–4 ×
- Detection in plasma following oral administration of the full-spectrum extract [2]: detected
- r (transport efflux ratio) (BCRP [3]; 10 µM cannabinoid in the presence of 10 µM elacridar): 0.7 ± 0.2
- P (A > B) (BCRP [3]; 10 µM cannabinoid): 54 ± 17 × 10^−5 cm/s
- P (B > A) (BCRP [3]; 10 µM cannabinoid): 74 ± 28 × 10^−5 cm/s
- r (transport efflux ratio) (BCRP [3]; [9]): 1.4 ± 0.5
- BCRP substrate status (BCRP [3]): weak substrates of BCRP
- r (transport efflux ratio) (wildtype MDCK cells): 0.3 ± 0.3
- P (A > B) (wildtype MDCK cells): 9 ± 3 × 10^−5 cm/s
- P (B > A) (wildtype MDCK cells): 3 ± 1 × 10^−5 cm/s
- P (A > B) of CBDA in the presence of inhibitor (BCRP [4]): 21 ± 3 × 10^−5 cm/s
- P (B > A) of CBDA in the presence of inhibitor (BCRP [4]): 47 ± 4 × 10^−5 cm/s

SMILES: C=C(C)[C@@H]1CCC(C)=C[C@H]1c1c(O)cc(CCC)c(C(=O)O)c1O [CBDVA, cannabidivarinic acid]
- P (A > B) (P-glycoprotein; [5]): 14 ± 4 × 10^−5 cm/s
- P (B > A) (P-glycoprotein; [5]): 22 ± 2 × 10^−5 cm/s
- r (transport efflux ratio) (P-glycoprotein; P-glycoprotein MDCK cells, 10 µM cannabinoid, substrate threshold 2.5): 1.6 ± 0.3
- P-glycoprotein substrate status (P-glycoprotein): not P-glycoprotein substrates
- P (A > B) of prazosin in the presence of inhibitor (BCRP [1]): 15 ± 3 × 10^−2 cm/s
- P (B > A) of prazosin in the presence of inhibitor (BCRP [1]): 201 ± 4 × 10^−2 cm/s
- tmax [2, 6]: 0.25 h
- AUC [2, 7]: 7459 µg·min/mL
- t1/2 [2, 7]: 2.5 h
- Cmax ([2]; administered as individual cannabinoid, doses mg/kg: CBDA 50, CBDVA 7, CBGA 7): 26000 ± 2000 ng/mL
- AUC [2, 8]: 3844 µg·min/mL
- t1/2 [2, 8]: 2 h
- tmax [2, 8]: 1 h
- Cmax ([2]; administered in full-spectrum extract, doses mg/kg: CBDA 50, CBDVA 7, CBGA 7): 11000 ± 1000 ng/mL
- Total plasma exposure in full-spectrum extract relative to individual compound, fold lower [2]: 2–4 ×
- Detection in plasma following oral administration of the full-spectrum extract [2]: detected
- P (A > B) (BCRP [3]; 10 µM cannabinoid): 24 ± 9 × 10^−5 cm/s
- P (B > A) (BCRP [3]; 10 µM cannabinoid): 47 ± 6 × 10^−5 cm/s
- r (transport efflux ratio) (BCRP [3]; [9]): 2.0 ± 0.4
- BCRP substrate status (BCRP [3]): BCRP substrates
- r (transport efflux ratio) (wildtype MDCK cells): 1.1 ± 0.2
- P (A > B) (wildtype MDCK cells): 22 ± 3 × 10^−5 cm/s
- P (B > A) (wildtype MDCK cells): 25 ± 2 × 10^−5 cm/s
- Effect on BCRP-mediated transport of CBDA (BCRP [4]; 10 µM, compared to vehicle): Neither CBD nor CBDVA affected CBDA transport via BCRP
- P (A > B) of CBDA in the presence of inhibitor (BCRP [4]): 8 ± 1 × 10^−5 cm/s
- P (B > A) of CBDA in the presence of inhibitor (BCRP [4]): 63 ± 4 × 10^−5 cm/s
